Reference: ChEMBL document CHEMBL4765272, “Design, synthesis and biological evaluation of tyrosine derivatives as Mcl-1 inhibitors” (Eur J Med Chem, 2020)

Columns and labels:
[1] = Inhibition of 5-FAM-BH3 peptide binding to N-terminal His8-tagged human MCL-1 (209 to 327 residues)/mouse MCL-1 (152 to 189 residues) expressed in Escherichia coli BL21 (DE3) by fluorescence polarization assay
HepG2 [2] = assay: Induction of apoptosis in human HepG2 cells assessed as necrotic cells at 20 uM measured after 48 hrs by Annexin V-FITC/propidium iodide staining based flow cytometry (reference value: 0.52%); assay type: functional
[3] = Induction of apoptosis in human KM3 cells assessed as late apoptotic cells at 10 uM measured after 48 hrs by Annexin V-FITC/propidium iodide staining based flow cytometry (reference value: 1.15%); assay type: functional
HepG2 [4] = assay: Induction of apoptosis in human HepG2 cells assessed as early apoptotic cells at 10 uM measured after 48 hrs by Annexin V-FITC/propidium iodide staining based flow cytometry (reference value: 0.71%); assay type: functional
KM3 = assay: Induction of apoptosis in human KM3 cells measured after 48 hrs by Annexin V-FITC/propidium iodide staining based flow cytometry; assay type: functional, cell-based
HepG2 [5] = assay: Induction of apoptosis in human HepG2 cells measured after 48 hrs by Annexin V-FITC/propidium iodide staining based flow cytometry; assay type: functional, cell-based
[6] = Induction of apoptosis in human KM3 cells assessed as viable cells at 10 uM measured after 48 hrs by Annexin V-FITC/propidium iodide staining based flow cytometry (reference value: 96.24%); assay type: functional; conditions: read-out: Activity
[7] = Induction of apoptosis in human KM3 cells assessed as early apoptotic cells at 10 uM measured after 48 hrs by Annexin V-FITC/propidium iodide staining based flow cytometry (reference value: 2.18%); assay type: functional
[8] = Inhibition of 5-FAM-BH3 peptide binding to human N-terminal GST-tagged BCL-2 (1 to 34 residues)/BCL-XL (29 to 44 residues)/BCL-2 isoform 2 (92 to 207 residues) expressed in Escherichia coli BL21 (DE3) by fluorescence polarization assay
[9] = Induction of apoptosis in human KM3 cells assessed as necrotic cells at 20 uM measured after 48 hrs by Annexin V-FITC/propidium iodide staining based flow cytometry (reference value: 0.42%); assay type: functional
[10] = Induction of apoptosis in human KM3 cells assessed as necrotic cells at 10 uM measured after 48 hrs by Annexin V-FITC/propidium iodide staining based flow cytometry (reference value: 0.42%); assay type: functional
HepG2 [11] = assay: Induction of apoptosis in human HepG2 cells assessed as early apoptotic cells at 20 uM measured after 48 hrs by Annexin V-FITC/propidium iodide staining based flow cytometry (reference value: 0.71%); assay type: functional
PC-3 = assay: Antiproliferative activity against human PC-3 cells incubated for 72 hrs by MTT assay; assay type: functional, cell-based; conditions: PC-3, 72 h
RPMI-8226 = assay: Antiproliferative activity against human RPMI-8226 cells incubated for 72 hrs by MTT assay; assay type: functional, cell-based; conditions: RPMI-8226, 72 h
NCI-H1299 = assay: Antiproliferative activity against human NCI-H1299 cells incubated for 72 hrs by MTT assay; assay type: functional, cell-based; conditions: NCI-H1299, 72 h
MOLT-4 = assay: Antiproliferative activity against human MOLT-4 cells incubated for 72 hrs by MTT assay; assay type: functional, cell-based; conditions: MOLT-4, 72 h
HepG2 [12] = assay: Induction of apoptosis in human HepG2 cells assessed as viable cells at 10 uM measured after 48 hrs by Annexin V-FITC/propidium iodide staining based flow cytometry (reference value: 96.84%); assay type: functional; conditions: read-out: Activity
HepG2 [13] = assay: Induction of apoptosis in human HepG2 cells assessed as viable cells at 20 uM measured after 48 hrs by Annexin V-FITC/propidium iodide staining based flow cytometry (reference value: 96.84%); assay type: functional; conditions: read-out: Activity
[14] = target: Bcl-2-like protein 1 (Homo sapiens) (UniProt Q07817); assay: Inhibition of 5-FAM-BH3 peptide binding to human N-terminal GST-tagged BCL-XL (1 to 212 residues) expressed in Escherichia coli BL21 (DE3) at 100 uM by fluorescence polarization assay relative to control
HepG2 [15] = assay: Induction of apoptosis in human HepG2 cells assessed as late apoptotic cells at 20 uM measured after 48 hrs by Annexin V-FITC/propidium iodide staining based flow cytometry (reference value: 1.93%); assay type: functional
Jurkat = assay: Antiproliferative activity against human Jurkat cells incubated for 72 hrs by MTT assay; assay type: functional, cell-based
HepG2 [16] = assay: Induction of apoptosis in human HepG2 cells assessed as late apoptotic cells at 10 uM measured after 48 hrs by Annexin V-FITC/propidium iodide staining based flow cytometry (reference value: 1.93%); assay type: functional
[17] = Induction of apoptosis in human KM3 cells assessed as early apoptotic cells at 20 uM measured after 48 hrs by Annexin V-FITC/propidium iodide staining based flow cytometry (reference value: 2.18%); assay type: functional
[18] = Induction of apoptosis in human KM3 cells assessed as late apoptotic cells at 20 uM measured after 48 hrs by Annexin V-FITC/propidium iodide staining based flow cytometry (reference value: 1.15%); assay type: functional
HepG2 [19] = assay: Antiproliferative activity against human HepG2 cells incubated for 72 hrs by MTT assay; assay type: functional, cell-based; conditions: HepG2, 72 h
HepG2 [20] = assay: Induction of apoptosis in human HepG2 cells assessed as necrotic cells at 10 uM measured after 48 hrs by Annexin V-FITC/propidium iodide staining based flow cytometry (reference value: 0.52%); assay type: functional
[21] = Antiproliferative activity against human KM3 cells incubated for 72 hrs by MTT assay; assay type: functional, cell-based; conditions: KM3, 72 h
[22] = Induction of apoptosis in human KM3 cells assessed as viable cells at 20 uM measured after 48 hrs by Annexin V-FITC/propidium iodide staining based flow cytometry (reference value: 96.24%); assay type: functional; conditions: read-out: Activity
Homo sapiens = species: Homo sapiens; assay: Inhibition of 5-FAM-BH3 peptide binding to human N-terminal GST-tagged BCL-2 (1 to 34 residues)/BCL-XL (29 to 44 residues)/BCL-2 isoform 2 (92 to 207 residues) expressed in Escherichia coli BL21 (DE3) at 100 uM by fluorescence polarization assay relative to control

Chain of Bcl-2-like protein 1 (Homo sapiens) (Q07817 whole entry, the tested form may be a part): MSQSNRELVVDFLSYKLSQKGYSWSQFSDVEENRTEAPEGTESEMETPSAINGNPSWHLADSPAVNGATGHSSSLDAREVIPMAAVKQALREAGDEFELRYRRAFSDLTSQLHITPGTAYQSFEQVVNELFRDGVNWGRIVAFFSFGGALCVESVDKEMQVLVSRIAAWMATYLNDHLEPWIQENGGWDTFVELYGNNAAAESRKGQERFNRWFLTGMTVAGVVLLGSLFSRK

Cc1cc(OCCOc2ccc(C[C@H](NC(=O)c3ccccc3)C(=O)NS(=O)(=O)c3ccc(NCCCc4ccccc4)c([N+](=O)[O-])c3)cc2)cc(C)c1Cl
Ki [1]: 270 nM
Activity (HepG2 [2]): 4.13%
Activity [3]: 5.52%
Activity (HepG2 [4]): 0.87%
Activity (KM3): Dose-dependent effect
Activity (HepG2 [5]): Dose-dependent effect
viability at 10 µM [6]: 83%
Activity [7]: 10.52%
Ki [8]: 1700 nM
Activity [9]: 1.73%
Activity [10]: 1.01%
Activity (HepG2 [11]): 2.25%
IC50 (PC-3): 14300 nM
IC50 (RPMI-8226): 7610 nM
IC50 (NCI-H1299): 12900 nM
IC50 (MOLT-4): 13900 nM
viability at 10 µM (HepG2 [12]): 82.3%
viability at 20 µM (HepG2 [13]): 18.5%
inhibition [14]: > 50%
Activity (HepG2 [15]): 75.13%
IC50 (Jurkat): 13000 nM
Activity (HepG2 [16]): 11.72%
Activity [17]: 17.71%
Activity [18]: 68.68%
IC50 (HepG2 [19]): 11700 nM
Activity (HepG2 [20]): 5.13%
IC50 [21]: 7460 nM
viability at 20 µM [22]: 11.9%

Cc1cc(OCCOc2ccc(C[C@H](NC(=O)OC(C)(C)C)C(=O)NS(=O)(=O)c3ccc(NCCOc4ccccc4)c([N+](=O)[O-])c3)cc2)cc(C)c1Cl
Ki [1]: 670 nM

Cc1ccc(CC(=O)N[C@@H](Cc2cc(I)c(OCCOc3cccc4ccccc34)c(I)c2)C(=O)NS(=O)(=O)c2ccc(NCCCc3ccccc3)c([N+](=O)[O-])c2)cc1
Ki [1]: 210 nM
inhibition (Homo sapiens): > 50%
IC50 (PC-3): 18200 nM
IC50 (RPMI-8226): 7350 nM
IC50 (NCI-H1299): 21500 nM
IC50 (MOLT-4): 18000 nM
inhibition [14]: > 50%
IC50 (Jurkat): 17200 nM
IC50 (HepG2 [19]): 12700 nM
IC50 [21]: 8260 nM

Cc1ccc(CC(=O)N[C@@H](Cc2ccc(OCCOc3cccc4ccccc34)cc2)C(=O)NS(=O)(=O)c2ccc(NCc3ccccc3)c([N+](=O)[O-])c2)cc1
Ki [1]: 760 nM

Cc1ccc(CC(=O)N[C@@H](Cc2ccc(OCCOc3ccc(Cl)cc3)cc2)C(=O)NS(=O)(=O)c2ccc(Cl)c([N+](=O)[O-])c2)cc1
Ki [1]: 1600 nM

Cc1ccc(CC(=O)N[C@@H](Cc2ccc(OCCOc3cccc4ccccc34)cc2)C(=O)NS(=O)(=O)c2ccc(NCCCc3ccccc3)c([N+](=O)[O-])c2)cc1
Ki [1]: 440 nM

Cc1cc(OCCCCOc2ccc(C[C@H](NC(=O)OC(C)(C)C)C(=O)NS(=O)(=O)c3ccc(Cl)c([N+](=O)[O-])c3)cc2)cc(C)c1Cl
Ki [1]: 710 nM

CC(C)(C)OC(=O)N[C@@H](Cc1cc(I)c(OCCOc2cccc3ccccc23)c(I)c1)C(=O)NS(=O)(=O)c1ccc(Cl)c([N+](=O)[O-])c1
Ki [1]: 1400 nM

CC(C)(C)OC(=O)N[C@@H](Cc1ccc(OCCOc2ccccc2)cc1)C(=O)NS(=O)(=O)c1ccc(Cl)c([N+](=O)[O-])c1
Ki [1]: > 15000 nM

Cc1cc(OCCOc2ccc(C[C@H](NC(=O)OC(C)(C)C)C(=O)NS(=O)(=O)c3ccc(NCCCc4ccccc4)c([N+](=O)[O-])c3)cc2)cc(C)c1Cl
Ki [1]: 450 nM

O=C(Cc1ccc(Cl)cc1)N[C@@H](Cc1ccc(OCCOc2cccc3ccccc23)cc1)C(=O)NS(=O)(=O)c1ccc(Cl)c([N+](=O)[O-])c1
Ki [1]: 510 nM

Cc1ccc(CC(=O)N[C@@H](Cc2ccc(OCCOc3cc(C)c(Cl)c(C)c3)cc2)C(=O)NS(=O)(=O)c2ccc(NCCOc3ccccc3)c([N+](=O)[O-])c2)cc1
Ki [1]: 340 nM

Cc1ccc(CC(=O)N[C@@H](Cc2ccc(OCCOc3ccccc3)cc2)C(=O)NS(=O)(=O)c2ccc(Cl)c([N+](=O)[O-])c2)cc1
Ki [1]: 8500 nM

CC(C)(C)OC(=O)N[C@@H](Cc1cc(Cl)c(OCCOc2cccc3ccccc23)c(Cl)c1)C(=O)NS(=O)(=O)c1ccc(Cl)c([N+](=O)[O-])c1
Ki [1]: 1000 nM

Cc1cc(OCCCCOc2ccc(C[C@H](NC(=O)OC(C)(C)C)C(=O)NS(=O)(=O)c3ccc(NCCCc4ccccc4)c([N+](=O)[O-])c3)cc2)cc(C)c1Cl
Ki [1]: 260 nM
Ki [8]: 1200 nM
IC50 (PC-3): 9710 nM
IC50 (RPMI-8226): 8610 nM
IC50 (NCI-H1299): 22900 nM
IC50 (MOLT-4): 19700 nM
inhibition [14]: > 50%
IC50 (Jurkat): 21200 nM
IC50 (HepG2 [19]): 11000 nM
IC50 [21]: 9700 nM

CC(C)(C)OC(=O)N[C@@H](Cc1ccc(OCCOc2ccc(Cl)cc2)cc1)C(=O)NS(=O)(=O)c1ccc(Cl)c([N+](=O)[O-])c1
Ki [1]: 4800 nM

Cc1cc(OCCOc2ccc(C[C@H](NC(=O)OC(C)(C)C)C(=O)NS(=O)(=O)c3ccc(Cl)c([N+](=O)[O-])c3)cc2)cc(C)c1Cl
Ki [1]: 700 nM

CC(C)(C)OC(=O)N[C@@H](Cc1ccc(OCCOc2cccc3ccccc23)cc1)C(=O)NS(=O)(=O)c1ccc(Cl)c([N+](=O)[O-])c1
Ki [1]: 5000 nM

CC(C)(C)OC(=O)N[C@@H](Cc1ccc(OCCOc2cccc3ccccc23)cc1)C(=O)NS(=O)(=O)c1ccc(NCCCc2ccccc2)c([N+](=O)[O-])c1
Ki [1]: 1100 nM

CC(C)(C)OC(=O)N[C@@H](Cc1ccc(OCCOc2cccc3ccccc23)cc1)C(=O)NS(=O)(=O)c1ccc(NCCc2ccccc2)c([N+](=O)[O-])c1
Ki [1]: 420 nM

Cc1ccc(CC(=O)N[C@@H](Cc2ccc(OCCOc3cc(C)c(Cl)c(C)c3)cc2)C(=O)NS(=O)(=O)c2ccc(Cl)c([N+](=O)[O-])c2)cc1
Ki [1]: 480 nM

Cc1ccc(CC(=O)N[C@@H](Cc2ccc(OCCOc3cccc4ccccc34)cc2)C(=O)NS(=O)(=O)c2ccc(NCCc3ccccc3)c([N+](=O)[O-])c2)cc1
Ki [1]: 470 nM

COc1ccc(CC(=O)N[C@@H](Cc2ccc(OCCOc3cccc4ccccc34)cc2)C(=O)NS(=O)(=O)c2ccc(NCCCc3ccccc3)c([N+](=O)[O-])c2)cc1
Ki [1]: 500 nM

Cc1ccc(CC(=O)N[C@@H](Cc2cc(Br)c(OCCOc3cccc4ccccc34)c(Br)c2)C(=O)NS(=O)(=O)c2ccc(Cl)c([N+](=O)[O-])c2)cc1
Ki [1]: 970 nM

Cc1ccc(CC(=O)N[C@@H](Cc2cc(Cl)c(OCCOc3cccc4ccccc34)c(Cl)c2)C(=O)NS(=O)(=O)c2ccc(Cl)c([N+](=O)[O-])c2)cc1
Ki [1]: 720 nM

Cc1ccc(C(=O)N[C@@H](Cc2ccc(OCCOc3cccc4ccccc34)cc2)C(=O)NS(=O)(=O)c2ccc(Cl)c([N+](=O)[O-])c2)cc1
Ki [1]: 710 nM

Cc1ccc(CC(=O)N[C@@H](Cc2cc(I)c(OCCOc3cccc4ccccc34)c(I)c2)C(=O)NS(=O)(=O)c2ccc(Cl)c([N+](=O)[O-])c2)cc1
Ki [1]: 570 nM

Cc1ccc(CC(=O)N[C@@H](Cc2ccc(OCCOc3cccc4ccccc34)cc2)C(=O)NS(=O)(=O)c2ccc(Cl)c([N+](=O)[O-])c2)cc1
Ki [1]: 590 nM

Cc1cc(OCCCOc2ccc(C[C@H](NC(=O)OC(C)(C)C)C(=O)NS(=O)(=O)c3ccc(Cl)c([N+](=O)[O-])c3)cc2)cc(C)c1Cl
Ki [1]: 660 nM
